Data as given in patent US10100055B2, “Imidazopyrroloquinoline salt, method for producing the same, medicament, cosmetic, and food” (Mitsubishi Gas Chemical Company, Inc., priority 2016, dated 2018).

Legend:
[1] = Solubility in water or ethanol, by absorbance at 260 nm; format: physicochemical; details: thermodynamic from solid
Procedure: The resultants were allowed to stand at the following temperatures (23° C. or 50° C.) for 1 hour, and thereafter centrifuged, and filtered with a filter of 0.5 μm; […] at an absorption wavelength of 260 nm.

[2] = system: Human uterine cancer cells (HeLa cells); test: Cell activity test (cell counting kit 8); format: cell-based; parameters: number of the human uterine cancer cells (number without sample taken to be 100): dose or concentration left out as unconfirmed
Procedure: Human uterine cancer cells (HeLa cells) were cultured in an incubator at a 5%-CO2 concentration and at 37° C. Thereafter, the human uterine cancer cells were inoculated to 96 wells so as to become 1000 cells/well, and cultured for one night. Then, a suspension in which the sample of Example 1 was suspended in a phosphate buffer so as to become 1 g/L was used and added so as to become […]. After 2 days, by using a “cell counting kit 8” (trade name, manufactured by Dojindo Laboratories), the number of the human uterine cancer cells was measured. When the number of the human uterine cancer cells 2 days after the culture for one night when the sample of Example 1 was not added was taken to be 100, the number of the cells when the sample of Example 1 in […] was used was 112.

## N=C(N)NCCCc1nc2c(=O)c3cc(C(=O)O)[nH]c3c3c(C(=O)O)cc(C(=O)O)n1c23 [Example 1, argIPQ disodium trihydrate]
[1]; organic solvent or mixture, ethanol, 23° C.
  solubility at 1 h: 0.4 mg/mL
[1]; water, 23° C.
  solubility at 1 h: 37 mg/mL
[1]; water, 50° C.
  solubility at 1 h: 47 mg/mL
[2]
  effect on cell proliferation (in words): functioned to advance the cell proliferation
[2]; after 2 days, control = 100
  number of the human uterine cancer cells (number without sample taken to be 100): 112
